{
  "source": "paper PMC3807247",
  "about": "(Journal of the American Chemical Society, 2009)",
  "key": {"[1]": {"target": "full length Udorn AM2 protein (Influenza A virus, UniProt P0DOF5)", "sequence (P0DOF5 whole entry, looked up)": "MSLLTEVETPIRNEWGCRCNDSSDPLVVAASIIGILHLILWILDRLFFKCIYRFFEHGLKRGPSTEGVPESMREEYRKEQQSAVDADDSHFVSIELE", "test": "Two-electrode voltage clamp", "type": "cell-based, influenza virus A/Udorn/72", "conditions": "for AM2 remaing Activity after 100uM inhibition: Table 1, 100 uM inhibitor, pH 5.5, -20 mV; for inhibitory activity against AM2 (in words): tested at 100 μM"}, "[2]": {"tested_on": "AM2 channel expressed in Xenopus oocytes", "conditions": "BL-1743, TEV; cited from earlier work"}, "[3]": {"conditions": "read-out: Activity remaining activity after 100uM inhibition"}},
  "note": "Read-outs that look alike come from different tables or passages of the source.",
  "data": [
    {"smiles": "C1CCC2(CC1)CCN(C1=NCCN1)CC2.I", "note": "[BL-1743, 3-(4,5-Dihydro-1H-imidazol-2-yl)-3-azaspiro[5,5]undecane Hydroiodide, reference compound]", "values": [
      {"measurement": "AM2 remaing Activity after 100uM inhibition", "setting": "[1]; TEV, Xenopus oocytes", "result": 25, "unit": "%"},
      {"measurement": "Hill coefficient for inhibition", "setting": "[2]", "result": 1.0}
    ]},
    {"smiles": "C1CCC2(CC1)CCN(CC1CC1)CC2", "note": "[Compound 1, 3-(Cyclopropylmethyl)-3-azaspiro[5,5]undecane]", "values": [
      {"measurement": "AM2 remaing Activity after 100uM inhibition", "setting": "[1]; TEV, Xenopus oocytes", "result": 100, "unit": "%"}
    ]},
    {"smiles": "C1CCC2(CC1)CCN(CC1CCCC1)CC2", "note": "[Compound 2, 3-(Cyclopentylmethyl)-3-azaspiro[5,5]undecane]", "values": [
      {"measurement": "AM2 remaing Activity after 100uM inhibition", "setting": "[1]; TEV, Xenopus oocytes", "result": 100, "unit": "%"}
    ]},
    {"smiles": "c1cc(CN2CCC3(CCCCC3)CC2)cs1", "note": "[Compound 3, 3-(Thiophen-3-ylmethyl)-3-azaspiro[5,5]undecane]", "values": [
      {"measurement": "AM2 remaing Activity after 100uM inhibition", "setting": "[1]; TEV, Xenopus oocytes", "result": 90, "unit": "%"}
    ]},
    {"smiles": "Cn1cc(CN2CCC3(CCCCC3)CC2)cn1", "note": "[Compound 4, 3-((1-Methyl-1H-pyrazol-4-yl)methyl)-3-azaspiro[5,5]undecane]", "values": [
      {"measurement": "AM2 remaing Activity after 100uM inhibition", "setting": "[1]; TEV, Xenopus oocytes", "result": 100, "unit": "%"}
    ]},
    {"smiles": "Cc1cc(CN2CCC3(CCCCC3)CC2)no1", "note": "[Compound 5, 3-(3-Azaspiro[5,5]undecan-3-ylmethyl)-5-methylisoxazole]", "values": [
      {"measurement": "AM2 remaing Activity after 100uM inhibition", "setting": "[1]; TEV, Xenopus oocytes", "result": 100, "unit": "%"}
    ]},
    {"smiles": "c1ccc(CN2CCC3(CCCCC3)CC2)nc1", "note": "[Compound 6, 3-(Pyridin-2-ylmethyl)-3-azaspiro[5,5]undecane]", "values": [
      {"measurement": "AM2 remaing Activity after 100uM inhibition", "setting": "[1]; TEV, Xenopus oocytes", "result": 100, "unit": "%"}
    ]},
    {"smiles": "c1nc(CN2CCC3(CCCCC3)CC2)c[nH]1", "note": "[Compound 7, 3-((1H-Imidazol-4-yl)methyl)-3-azaspiro[5.5]undecane]", "values": [
      {"measurement": "AM2 remaing Activity after 100uM inhibition", "setting": "[1]; TEV, Xenopus oocytes", "result": 70, "unit": "%"},
      {"measurement": "inhibitory activity against AM2 (in words)", "setting": "[1]", "result": "moderate inhibition"}
    ]},
    {"smiles": "c1c[nH]c(CN2CCC3(CCCCC3)CC2)n1", "note": "[Compound 8, 3-((1H-Imidazol-2-yl)methyl)-3-azaspiro[5.5]undecane]", "values": [
      {"measurement": "AM2 remaing Activity after 100uM inhibition", "setting": "[1]; TEV, Xenopus oocytes", "result": 49, "unit": "%"},
      {"measurement": "inhibitory activity against AM2 (in words)", "setting": "[1]", "result": "moderate inhibition"}
    ]},
    {"smiles": "C1CCC2(CC1)CCNCC2.Cl", "note": "[Compound 9, 3-Azaspiro[5,5]undecane Chloride]", "values": [
      {"measurement": "IC50", "setting": "[1]; Table 2, TEV, Xenopus oocytes", "result": "0.92 ± 0.11", "unit": "µM"},
      {"measurement": "increase in potency relative to BL-1743", "setting": "[1]; ratio of IC50 values", "result": "more than 45 fold"}
    ]},
    {"smiles": "CN1CCC2(CCCCC2)CC1.Cl", "note": "[Compound 10, 3-Methyl-3-azoniaspiro[5,5]undecane Chloride]", "values": [
      {"measurement": "decrease in activity relative to spiro-piperidine 9", "setting": "[1]; ratio of IC50 values", "result": "approximately 20 fold"}
    ]},
    {"smiles": "NC(=O)N1CCC2(CCCCC2)CC1", "note": "[Compound 12, 3-Azaspiro[5,5]undecane-3-carboxamide]", "values": [
      {"measurement": "inhibitory activity against AM2 (in words)", "setting": "[1]", "result": "not active"}
    ]},
    {"smiles": "NC(=S)N1CCC2(CCCCC2)CC1", "note": "[Compound 13, 3-Azaspiro[5,5]undecane-3-carbothioamide]", "values": [
      {"measurement": "inhibitory activity against AM2 (in words)", "setting": "[1]", "result": "not active"}
    ]},
    {"smiles": "C1CCC2(CC1)CCNC2", "note": "[Compound 16, 2-Azoniaspiro[4,5]decane Chloride]", "values": [
      {"measurement": "IC50", "setting": "[1]", "result": "12 ± 1.6", "unit": "µM"}
    ]},
    {"smiles": "C1COC2(CCNCC2)OC1", "note": "[Compound 17, 1,5-Dioxa-9-azaspiro[5,5]undecane]", "values": [
      {"measurement": "IC50", "setting": "[1]", "result": "> 100", "unit": "µM"},
      {"measurement": "remaining activity at 100 µM", "setting": "[1]; [3]", "result": 100, "unit": "%"}
    ]},
    {"smiles": "C1CSC2(CCNCC2)SC1", "note": "[Compound 18, 1,5-Dithia-9-azaspiro[5,5]undecane]", "values": [
      {"measurement": "IC50", "setting": "[1]", "result": "37.6 ± 2.67", "unit": "µM"},
      {"measurement": "remaining activity at 100 µM", "setting": "[1]; [3]", "result": 12, "unit": "%"}
    ]},
    {"smiles": "CCC1(C)CCNCC1", "note": "[Compound 20, 4-Ethyl-4-methylpiperidinium Chloride]", "values": [
      {"measurement": "remaining activity at 100 µM", "setting": "[1]; read-out: AM2 remaining Activity after 100uM inhibition", "result": 22, "unit": "%"}
    ]}
  ]
}
